According to patent US11696913B2, “Prolonged ectoparasite-controlling agent for animal” (MITSUI CHEMICALS AGRO, INC., priority 2017, dated 2023):

Columns and labels:
Ixodes ricinus = assay: In vitro contact test with adult hard ticks (Ixodes ricinus); conditions: read-out: acaricidal activity; for pest or weed control at 1 µg/cm2, 1 µg/cm2: dose 1 μg/cm^2, 48 h; for pest or weed control at 5 µg/cm2, 5 µg/cm2: dose 5 μg/cm^2, 48 h; for pest or weed control at 0.2 µg/cm2, 0.2 µg/cm2: dose 0.2 μg/cm^2, 48 h
Procedure, shortened: (§1)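 Adult R. sanguineus, I. ricinus, D. variabilis or A. americanum nymphs exposed in glass vials coated with compound from acetone (900 ppm gives 5 μg/cm^2). Held 48 h at room temperature (R. sanguineus) or 21° C., 85% rel. hum.; then heated at 45-50° C. ≤5 min, motionless or uncoordinated ticks scored dead/moribund.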

Rhipicephalus sanguineus = assay: In vitro contact test with adult hard ticks (Rhipicephalus sanguineus); conditions: read-out: acaricidal activity; for pest or weed control at 0.2 µg/cm2, 0.2 µg/cm2: dose 0.2 μg/cm^2, 48 h; for pest or weed control at 1 µg/cm2, 1 µg/cm2: dose 1 μg/cm^2, 48 h; for pest or weed control at 0.04 µg/cm2, 0.04 µg/cm2: dose 0.04 μg/cm^2, 48 h
Procedure, shortened: as §1

Dermacentor variabilis = assay: In vitro contact test with adult hard ticks (Dermacentor variabilis); conditions: read-out: acaricidal activity; for pest or weed control at 0.2 µg/cm2, 0.2 µg/cm2: dose 0.2 μg/cm^2, 48 h; for pest or weed control at 1 µg/cm2, 1 µg/cm2: dose 1 μg/cm^2, 48 h; for pest or weed control at 0.04 µg/cm2, 0.04 µg/cm2: dose 0.04 μg/cm^2, 48 h
Procedure, shortened: as §1

[1] = tested on: Rhipicephalus (Boophilus) microplus; assay: In vitro injection test with Rhipicephalus (Boophilus) microplus (BOOPMI Inj); conditions: 168 h, laid fertile eggs after 7 days, read-out: acaricidal activity; for pest or weed control at 32 ng: dose 0.032 μg/animal injected; for pest or weed control at 0.00016 mg: dose 0.16 μg/animal injected; for pest or weed control at 0.0008 mg: dose 0.8 μg/animal injected; for pest or weed control at 6.4 ng: dose 0.0064 μg/animal injected
Procedure, shortened: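 Test substance in DMSO; 1 μl injected into abdomen of each of 5 engorged adult female ticks, then held at 28° C., 85% rel. hum. Activity scored after 7 days from laying of fertile eggs: 100% = no eggs or all infertile, 0% = all eggs fertile.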

Ctenocephalides felis [2] = assay: Ctenocephalides felis in-vitro feeding test with fleas (CTECFE oral); conditions: 48 hours, read-out: insecticidal feeding activity; for pest or weed control at 0.16 ppm: dose 0.16 ppm in citrated cattle blood; for pest or weed control at 0.8 ppm: dose 0.8 ppm in citrated cattle blood; for pest or weed control at 4 ppm: dose 4 ppm in citrated cattle blood
Procedure, shortened: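 About 20 unfed adult cat fleas fed through parafilm on citrated cattle blood containing test substance (DMSO solution diluted in blood), held at about 37° C. Kill rate scored after 48 hours, 100% meaning all fleas dead.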

Amblyomma americanum = assay: In vitro contact test with hard ticks (Amblyomma americanum nymphs); conditions: read-out: acaricidal activity; for pest or weed control at 0.2 µg/cm2, 0.2 µg/cm2: dose 0.2 μg/cm^2, 48 h; for pest or weed control at 1 µg/cm2, 1 µg/cm2: dose 1 μg/cm^2, 48 h
Procedure, shortened: as §1

Ctenocephalides felis [3] = assay: In vitro contact test with fleas; conditions: read-out: insecticidal activity; for pest or weed control at 0.2 µg/cm2, 0.2 µg/cm2: dose 0.2 μg/cm^2, dead or moribund fleas after 48 h; for pest or weed control at 1 µg/cm2, 1 µg/cm2: dose 1 μg/cm^2, dead or moribund fleas after 48 h; for pest or weed control at 0.04 µg/cm2, 0.04 µg/cm2: dose 0.04 μg/cm^2, dead or moribund fleas after 48 h
Procedure, shortened: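 Adult male and female cat fleas (5-10 per tube) placed in glass tubes coated with compound from acetone solution (900 ppm gives 5 μg/cm^2), kept at room temperature and ambient humidity. After 48 h, motionless or uncoordinated fleas scored dead or moribund; activity expressed as % dead or moribund.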

Laodelphax striatellus = assay: Insecticidal testing against small brown planthopper; format: in vivo; conditions: 144 h, concentration 100 ppm, sprayed rice seedlings, after 6 days, read-out: pesticidal rate
Procedure, shortened: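 Acetone solution of compound at a set concentration sprayed onto rice seedlings, air-dried, then exposed to 10 planthoppers (one group). Held at 25° C; survival rate recorded after 6 days.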

Plutella xylostella = assay: Insecticidal testing against diamondback moth; format: in vivo; conditions: foliar, 144 h, concentration 100 ppm, cabbage leaf dip, third-stage larvae, after 6 days, read-out: pesticidal rate
Source text: Insecticidal Testing Against Diamondback Moth (Plutella xylostella)

Spodoptera litura = assay: Insecticidal testing against common cutworm; format: in vivo; conditions: foliar, 144 h, concentration 100 ppm, cabbage leaf dip, second-stage larvae, after 6 days, read-out: pesticidal rate
Source text: Insecticidal Testing Against Common Cutworm (Spodoptera litura)

SMILES | pest or weed control at 1 µg/cm2, 1 µg/cm2 (Ixodes ricinus) [%] | pest or weed control at 5 µg/cm2, 5 µg/cm2 (Ixodes ricinus) [%] | pest or weed control at 0.2 µg/cm2, 0.2 µg/cm2 (Rhipicephalus sanguineus) [%] | pest or weed control at 1 µg/cm2, 1 µg/cm2 (Rhipicephalus sanguineus) [%] | pest or weed control at 0.2 µg/cm2, 0.2 µg/cm2 (Dermacentor variabilis) [%] | pest or weed control at 1 µg/cm2, 1 µg/cm2 (Dermacentor variabilis) [%] | pest or weed control at 32 ng [1] [%] | pest or weed control at 0.00016 mg [1] [%] | pest or weed control at 0.0008 mg [1] [%] | pest or weed control at 0.16 ppm (Ctenocephalides felis [2]) [%] | pest or weed control at 0.8 ppm (Ctenocephalides felis [2]) [%] | pest or weed control at 4 ppm (Ctenocephalides felis [2]) [%] | pest or weed control at 0.2 µg/cm2, 0.2 µg/cm2 (Amblyomma americanum) [%] | pest or weed control at 1 µg/cm2, 1 µg/cm2 (Amblyomma americanum) [%] | pest or weed control at 0.2 µg/cm2, 0.2 µg/cm2 (Ctenocephalides felis [3]) [%] | pest or weed control at 1 µg/cm2, 1 µg/cm2 (Ctenocephalides felis [3]) [%] | pest or weed control at 100 ppm (Laodelphax striatellus) [%] | pest or weed control at 100 ppm (Plutella xylostella) [%] | pest or weed control at 100 ppm (Spodoptera litura) [%] | pest or weed control at 0.2 µg/cm2, 0.2 µg/cm2 (Ixodes ricinus) [%] | other results
O=C(Nc1cccc(C(=O)Nc2c(I)cc(C(F)(C(F)(F)F)C(F)(F)F)cc2S(=O)(=O)C(F)(F)F)c1F)c1ccc(F)cc1 [Compound 64] | 90 | 90 | 90 | 90 | 90 | 90 | 100 | 100 | 100 | 95 | 95 | 95 | 90 | 90 | 95 | 95 | ≥ 70 | ≥ 70 | ≥ 70 | – | –
O=C(Nc1cccc(C(=O)Nc2c(Br)cc(C(F)(C(F)(F)F)C(F)(F)F)cc2OC(F)(F)F)c1F)c1ccc(F)cc1 [Compound 71] | 90 | 90 | 90 | 90 | 90 | 90 | 100 | 100 | 100 | – | 95 | 95 | 90 | 90 | 95 | 95 | ≥ 70 | ≥ 70 | ≥ 70 | 90 | pest or weed control at 0.04 µg/cm2, 0.04 µg/cm2 (Rhipicephalus sanguineus): 90%
O=C(Nc1cccc(C(=O)Nc2c(I)cc(C(F)(C(F)(F)F)C(F)(F)F)cc2OC(F)(F)F)c1F)c1ccc(F)cc1 [Compound 73] | 90 | 90 | 90 | 90 | 90 | 90 | 100 | 100 | 100 | 95 | 95 | 95 | 90 | 90 | 95 | 95 | ≥ 70 | ≥ 70 | ≥ 70 | 90 | pest or weed control at 0.04 µg/cm2, 0.04 µg/cm2 (Rhipicephalus sanguineus): 90%; pest or weed control at 0.04 µg/cm2, 0.04 µg/cm2 (Dermacentor variabilis): 90%; pest or weed control at 0.04 µg/cm2, 0.04 µg/cm2 (Ctenocephalides felis [3]): 95%
O=C(Nc1cccc(C(=O)Nc2c(I)cc(C(F)(C(F)(F)F)C(F)(F)C(F)(F)F)cc2C(F)(F)F)c1F)c1ccc(F)c(F)c1 (stereo not shown) [Compound 78] | 90 | 90 | 90 | 90 | 90 | 90 | 100 | 100 | 100 | 95 | 95 | 95 | 90 | 90 | 95 | 95 | ≥ 70 | ≥ 70 | ≥ 70 | 90 | pest or weed control at 0.04 µg/cm2, 0.04 µg/cm2 (Dermacentor variabilis): 90%
N#Cc1ccc(C(=O)Nc2cccc(C(=O)Nc3c(I)cc(C(F)(C(F)(F)F)C(F)(F)F)cc3C(F)(F)F)c2F)cn1 [Compound 79] | 90 | 90 | 90 | 90 | – | 90 | 100 | 100 | 100 | 95 | 95 | 95 | 90 | 90 | 95 | 95 | ≥ 70 | ≥ 70 | ≥ 70 | – | –
CN(C(=O)c1ccc(F)nc1)c1cccc(C(=O)Nc2c(I)cc(C(F)(C(F)(F)F)C(F)(F)C(F)(F)F)cc2C(F)(F)F)c1F (stereo not shown) [Compound 81] | – | 90 | 90 | 90 | 90 | 90 | 100 | 100 | 100 | 95 | 95 | 95 | 90 | 90 | 95 | 95 | ≥ 70 | ≥ 70 | ≥ 70 | – | pest or weed control at 0.04 µg/cm2, 0.04 µg/cm2 (Dermacentor variabilis): 90%; pest or weed control at 6.4 ng [1]: 100%; pest or weed control at 0.04 µg/cm2, 0.04 µg/cm2 (Ctenocephalides felis [3]): 95%
O=C(Nc1cccc(C(=O)Nc2c(I)cc(C(F)(C(F)(F)F)C(F)(F)C(F)(F)F)cc2C(F)(F)F)c1F)c1ccc(F)nc1 (stereo not shown) [Compound 82] | – | 90 | 90 | 90 | 90 | 90 | 100 | 100 | 100 | 95 | 95 | 95 | 90 | 90 | 95 | 95 | ≥ 70 | ≥ 70 | ≥ 70 | – | pest or weed control at 0.04 µg/cm2, 0.04 µg/cm2 (Rhipicephalus sanguineus): 90%; pest or weed control at 0.04 µg/cm2, 0.04 µg/cm2 (Dermacentor variabilis): 90%; pest or weed control at 6.4 ng [1]: 100%; pest or weed control at 0.04 µg/cm2, 0.04 µg/cm2 (Ctenocephalides felis [3]): 95%
O=C(Nc1cc(C(=O)Nc2c(I)cc(C(F)(C(F)(F)F)C(F)(F)F)cc2C(F)(F)F)ccc1F)c1ccc(F)cc1 [Compound 84] | 90 | 90 | 90 | 90 | 90 | 90 | 100 | 100 | 100 | 95 | 95 | 95 | 90 | 90 | – | – | ≥ 70 | ≥ 70 | ≥ 70 | 90 | pest or weed control at 0.04 µg/cm2, 0.04 µg/cm2 (Rhipicephalus sanguineus): 90%
